Read-outs that look alike come from different tables or passages of the source.
What was measured:
Format in all cases: in vivo
[1] = test system: Echinochloa crus-galli; test: Field transplant rice test, applied 0 DAT, EC; details: 0 h, read-out: Percent Inhibition, EC; for inhibition at 375 g/ha: 0.375 Kg/Ha; for inhibition at 750 g/ha: 0.75 Kg/Ha; for inhibition at 1500 g/ha: 1.5 Kg/Ha; for inhibition at 3000 g/ha: 3.0 Kg/Ha
Protocol: (§1) The test data in Table III for all compounds was obtained under identical test conditions. The weeds used in the tests herein have the following abbreviations in the tables: Echinochloa crus-galli (EC), Monochloria vaginalis (MV), Cyperus Serotinus (CS), Eleocharis Kuroguwai (EK) and Sagittaria trifolia (ST).
(§2) In further comparative tests, a preferred compound of this invention (Example 1) was tested in the field with prior art Compounds A-D. These tests were conducted under conditions reflecting herbicide application times generally favorable to all herbicides in the test. The timing of application of herbicides to transplant rice is very important, whether, as in some instances, prior to transplanting the rice; in other instances, at the time of transplanting or else after transplanting. Application times are conventionally referred to as "days before transplant" (DBT) or "days after transplant" ("DAT"). The field test data in Table IV was obtained from a test in which the herbicides were applied at the time of transplant, i.e., "0 DAT", with observations being made weekly up to six weeks after transplant ("WAT") beginning at two weeks after transplant; for illustrative and representative purposes, only the early, middle and late period observations, i.e., 2 WAT, 4 WAT and 6 WAT, are shown in Table IV. The data in Table IV is for rates of application common to all herbicides in the test, i.e., from 3.0 kg/ha (2.67 lb/A) down to 0.375 kg/ha (0.34 lb/A). All herbicides were applied at their actual or expected use rates, i.e., as granules containing 2.5% by weight herbicide for the compound of Example 1, Compounds B, C and D and 5.0% by weight for Compound A.

[2] = test system: Cyperus serotinus; test: Field transplant rice test, applied 9 DAT, CS; details: for inhibition at 375 g/ha / inhibition at 750 g/ha / inhibition at 1500 g/ha / inhibition at 3000 g/ha: Cyperus serotinus, 216 h, read-out: Percent Inhibition, CS; for inhibition at 375 g/ha: 0.375 Kg/Ha; for inhibition at 750 g/ha: 0.75 Kg/Ha; for inhibition at 1500 g/ha: 1.5 Kg/Ha; for inhibition at 3000 g/ha: 3.0 Kg/Ha; for selectivity factor (GR15/GR85), CS in transplant rice: between 3 WAT and 7 WAT
Source text: In the discussion of data below, occasional reference is made to herbicide application rates symbolized as "GR15 " and "GR85 "; these rates are given in kilograms per hectare (kg/ha) which are convertible into pounds per acre (lbs/A) by dividing the kg/ha rate by 1.12.
A further guide to the effectiveness of a chemical as a selective herbicide is the "selectivity factor" ("SF") for a herbicide in given crops and weeds. The selectivity factor is a measure of the relative degree of crop safety and weed injury and is expressed in terms of the GR15 /GR85 ratio, i.e., the GR15 rate for the crop divided by the GR85 rate for the weed, both rates in kg/ha (lb/A.)
as §1, §2
In Table V are presented field data showing the relative performance of the compound of Example 1 and Compounds A-D applied 9 DAT, with observations being made weekly from 3 WAT to 7 WAT; again, for illustrative and representative purposes, only the early, middle and late period observations are reported in Table V, the herbicide rates and concentrations of active ingredients the same as is shown in Table IV.

[3] = test system: Echinochloa crus-galli; test: Upland seeded rice greenhouse test, barnyardgrass; details: for rate for selective control of Echinochloa crus-galli / selectivity factor, Echinochloa crus-galli in Upland seeded rice: Upland seeded rice, greenhouse
Protocol: In another comparative test in the greenhouse, the compound of Example 2 and Compound B were tested in Upland seeded rice. […] In contrast, Compound A, (a commercial rice herbicide), required 0.14 kg/ha (0.125 lb/A) to selectively control the same weed with rice safety also maintained at 1.12 kg/ha resulting in a selectivity factor of at least 8, i.e., less than one-half that of the compound of Example 2.

[4] = test system: Sagittaria trifolia; test: Field transplant rice test, applied 0 DAT, ST; details: 0 h, read-out: Percent Inhibition, ST; for inhibition at 375 g/ha: 0.375 Kg/Ha; for inhibition at 750 g/ha: 0.75 Kg/Ha; for inhibition at 1500 g/ha: 1.5 Kg/Ha; for inhibition at 3000 g/ha: 3.0 Kg/Ha
Protocol: as §1, §2

[5] = test system: Sagittaria trifolia; test: Greenhouse transplant rice test, ST; details: for inhibition at 280 g/ha / inhibition at 560 g/ha / inhibition at 1120 g/ha / inhibition at 2240 g/ha: Sagittaria trifolia, about 3 WAT, read-out: Percent Inhibition, ST; for inhibition at 280 g/ha: 0.28 Kg/Ha; for inhibition at 560 g/ha: 0.56 Kg/Ha; for inhibition at 1120 g/ha: 1.12 Kg/Ha; for inhibition at 2240 g/ha: 2.24 Kg/Ha
Source text: (§3) The test procedure used in this greenhouse test is as follows: Ray silt loam top soil containing about 0.05% by weight of krillium and sifted through a […] screen is fumigated about 5-10 days prior to use. Pots are then filled with said Ray silt loam soil to a level to allow for a 1 in. (2.54 cm) flooding depth. Rice plants (Bluebelle) of 2 to 3 weeks age are transplanted to the pots and bulbs or seeds of the test weeds also planted in the pots. The pots are then flooded and the test chemical applied to the surface of the flood water. The flood water is reduced to allow for germination of the Echinochloa crus-galli (barnyardgrass) seed and subsequently reflooded and maintained in that condition. Observations of percent inhibition using a scale of 0-100% are made about 3 weeks after transplant (WAT).
as §1

[6] = test system: Eleocharis kuroguwai; test: Greenhouse transplant rice test, EK; details: about 3 WAT, read-out: Percent Inhibition, EK; for inhibition at 280 g/ha: 0.28 Kg/Ha; for inhibition at 560 g/ha: 0.56 Kg/Ha; for inhibition at 1120 g/ha: 1.12 Kg/Ha; for inhibition at 2240 g/ha: 2.24 Kg/Ha
Source text: as §3, §1

SMILES: CCCCOCN(C(=O)CCl)c1c(CC)cccc1CC [Compound A, 2',6'-diethyl-N-(n-butoxymethyl)-2-chloroacetanilide]
- inhibition at 375 g/ha ([1]; 2 WAT): 60%
- inhibition at 375 g/ha ([1]; 4 WAT): 72%
- inhibition at 375 g/ha ([1]; 6 WAT): 60%
- inhibition at 750 g/ha ([1]; 2 WAT): 90%
- inhibition at 750 g/ha ([1]; 4 WAT): 100%
- inhibition at 750 g/ha ([1]; 6 WAT): 100%
- inhibition at 1500 g/ha ([1]; 2 WAT): 95%
- inhibition at 1500 g/ha ([1]; 4 WAT): 100%
- inhibition at 1500 g/ha ([1]; 6 WAT): 97%
- inhibition at 3000 g/ha ([1]; 2 WAT): 98%
- inhibition at 3000 g/ha ([1]; 4 WAT): 100%
- inhibition at 3000 g/ha ([1]; 6 WAT): 100%
- inhibition at 375 g/ha ([2]; 3 WAT): 80%
- inhibition at 375 g/ha ([2]; 5 WAT): 33%
- inhibition at 375 g/ha ([2]; 7 WAT): 67%
- inhibition at 750 g/ha ([2]; 3 WAT): 70%
- inhibition at 750 g/ha ([2]; 5 WAT): 50%
- inhibition at 750 g/ha ([2]; 7 WAT): 38%
- inhibition at 1500 g/ha ([2]; 3 WAT): 100%
- inhibition at 1500 g/ha ([2]; 5 WAT): 100%
- inhibition at 1500 g/ha ([2]; 7 WAT): 100%
- inhibition at 3000 g/ha ([2]; 3 WAT): 88%
- inhibition at 3000 g/ha ([2]; 5 WAT): 100%
- inhibition at 3000 g/ha ([2]; 7 WAT): 100%
- selectivity factor (GR15/GR85), CS in transplant rice [2]: 2
- rate for selective control of Echinochloa crus-galli [3]: 0.14 kg/ha
- selectivity factor, Echinochloa crus-galli in Upland seeded rice [3]: at least 8
- inhibition at 375 g/ha ([4]; 2 WAT): 37%
- inhibition at 375 g/ha ([4]; 4 WAT): 22%
- inhibition at 375 g/ha ([4]; 6 WAT): 7%
- inhibition at 750 g/ha ([4]; 2 WAT): 52%
- inhibition at 750 g/ha ([4]; 4 WAT): 20%
- inhibition at 750 g/ha ([4]; 6 WAT): 15%
- inhibition at 1500 g/ha ([4]; 2 WAT): 60%
- inhibition at 1500 g/ha ([4]; 4 WAT): 33%
- inhibition at 1500 g/ha ([4]; 6 WAT): 20%
- inhibition at 3000 g/ha ([4]; 2 WAT): 42%
- inhibition at 3000 g/ha ([4]; 4 WAT): 33%
- inhibition at 3000 g/ha ([4]; 6 WAT): 12%
- inhibition at 280 g/ha [5]: 15%
- inhibition at 560 g/ha [5]: 45%
- inhibition at 1120 g/ha [5]: 30%
- inhibition at 2240 g/ha [5]: 15%
- inhibition at 280 g/ha [6]: 50%
- inhibition at 560 g/ha [6]: 100%
- inhibition at 1120 g/ha [6]: 100%
- inhibition at 2240 g/ha [6]: 100%

SMILES: CCCCOc1cccc(CC)c1N(C)C(=O)CCl [Example 1, N-methyl-2'-n-butoxy-6'-ethyl-2-chloroacetanilide]
- inhibition at 375 g/ha ([1]; 2 WAT): 97%
- inhibition at 375 g/ha ([1]; 4 WAT): 100%
- inhibition at 375 g/ha ([1]; 6 WAT): 100%
- inhibition at 750 g/ha ([1]; 2 WAT): 98%
- inhibition at 750 g/ha ([1]; 4 WAT): 100%
- inhibition at 750 g/ha ([1]; 6 WAT): 98%
- inhibition at 1500 g/ha ([1]; 2 WAT): 100%
- inhibition at 1500 g/ha ([1]; 4 WAT): 100%
- inhibition at 1500 g/ha ([1]; 6 WAT): 100%
- inhibition at 3000 g/ha ([1]; 2 WAT): 98%
- inhibition at 3000 g/ha ([1]; 4 WAT): 100%
- inhibition at 3000 g/ha ([1]; 6 WAT): 100%
- inhibition at 375 g/ha ([2]; 3 WAT): 100%
- inhibition at 375 g/ha ([2]; 5 WAT): 98%
- inhibition at 375 g/ha ([2]; 7 WAT): 97%
- inhibition at 750 g/ha ([2]; 3 WAT): 93%
- inhibition at 750 g/ha ([2]; 5 WAT): 93%
- inhibition at 750 g/ha ([2]; 7 WAT): 95%
- inhibition at 1500 g/ha ([2]; 3 WAT): 82%
- inhibition at 1500 g/ha ([2]; 5 WAT): 100%
- inhibition at 1500 g/ha ([2]; 7 WAT): 67%
- inhibition at 3000 g/ha ([2]; 3 WAT): 100%
- inhibition at 3000 g/ha ([2]; 5 WAT): 100%
- inhibition at 3000 g/ha ([2]; 7 WAT): 100%
- selectivity factor (GR15/GR85), CS in transplant rice [2]: 16
- inhibition at 375 g/ha ([4]; 2 WAT): 42%
- inhibition at 375 g/ha ([4]; 4 WAT): 8%
- inhibition at 375 g/ha ([4]; 6 WAT): 5%
- inhibition at 750 g/ha ([4]; 2 WAT): 43%
- inhibition at 750 g/ha ([4]; 4 WAT): 12%
- inhibition at 750 g/ha ([4]; 6 WAT): 8%
- inhibition at 1500 g/ha ([4]; 2 WAT): 30%
- inhibition at 1500 g/ha ([4]; 4 WAT): 8%
- inhibition at 1500 g/ha ([4]; 6 WAT): 5%
- inhibition at 3000 g/ha ([4]; 2 WAT): 47%
- inhibition at 3000 g/ha ([4]; 4 WAT): 22%
- inhibition at 3000 g/ha ([4]; 6 WAT): 18%
- selective control of ST in rice ([5]; 0.56 kg/ha): positive selective control
- inhibition at 280 g/ha [5]: 75%
- inhibition at 560 g/ha [5]: 85%
- inhibition at 1120 g/ha [5]: 85%
- inhibition at 2240 g/ha [5]: 90%
- inhibition at 280 g/ha [6]: 100%
- inhibition at 560 g/ha [6]: 100%
- inhibition at 1120 g/ha [6]: 100%
- inhibition at 2240 g/ha [6]: 100%

SMILES: CCCCOc1cccc(CC)c1N(CC)C(=O)CCl [Example 2, N-ethyl-2'-n-butoxy-6'-ethyl-2-chloroacetanilide]
- rate for selective control of Echinochloa crus-galli [3]: 0.064 kg/ha
- selectivity factor, Echinochloa crus-galli in Upland seeded rice [3]: at least 17.5
- control of barnyardgrass ([3]; upland-seeded rice test, 0.0087 kg/ha (0.0078 lb/A)): 20%
- inhibition at 280 g/ha [5]: 30%
- inhibition at 560 g/ha [5]: 25%
- inhibition at 1120 g/ha [5]: 70%
- inhibition at 2240 g/ha [5]: 55%
- inhibition at 280 g/ha [6]: 100%
- inhibition at 560 g/ha [6]: 100%
- inhibition at 1120 g/ha [6]: 100%
- inhibition at 2240 g/ha [6]: 100%
